Measured values from ChEMBL document CHEMBL1201862, “PubChem BioAssay data set” (2004).
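Interpolation was linear, between the two tested concentrations surrounding the appropriate level; five concentrations were tested over 48 hours in 96-well plates. GI50: concentration for 50% inhibition of growth.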 Activity calls are given as the source filed them. No stated cut-off is given here; in the data, active = GI50 up to about 1.1 µM and inactive = higher.

How the values were obtained:
Experiment in all cases: NCI tumour cell line growth inhibition, 48 h
MDA-N = test system: MDA-N
Hs-578T = test system: Hs-578T
HCC 2998 = test system: HCC 2998
MOLT-4 = test system: MOLT-4
K562 = test system: K562
HCT-116 = test system: HCT-116
SR = test system: SR
OVCAR-3 = test system: OVCAR-3
NCI-H460 = test system: NCI-H460
T47D = test system: T47D
RPMI-8226 = test system: RPMI-8226
SF-268 = test system: SF-268
SK-MEL-28 = test system: SK-MEL-28
TK-10 = test system: TK-10
SN12C = test system: SN12C
OVCAR-5 = test system: OVCAR-5
HOP-92 = test system: HOP-92
CAKI-1 = test system: CAKI-1
SF-295 = test system: SF-295
NCI-H23 = test system: NCI-H23
A498 = test system: A498
HCT-15 = test system: HCT-15
M14 = test system: M14
U-251 = test system: U-251
HOP-62 = test system: HOP-62
A549 = test system: A549
UACC-62 = test system: UACC-62
NCI-H226 = test system: NCI-H226
EKVX = test system: EKVX
Malme-3M = test system: Malme-3M
SK-OV-3 = test system: SK-OV-3
786-0 = test system: 786-0
SK-MEL-5 = test system: SK-MEL-5
SNB-19 = test system: SNB-19
COLO 205 = test system: COLO 205
SNB-75 = test system: SNB-75
OVCAR-4 = test system: OVCAR-4
LOX IMVI = test system: LOX IMVI
PC-3 = test system: PC-3
SF-539 = test system: SF-539
HL-60 = test system: HL-60
SK-MEL-2 = test system: SK-MEL-2
NCI/ADR-RES = test system: NCI/ADR-RES
MDA-MB-435 = test system: MDA-MB-435
KM12 = test system: KM12
OVCAR-8 = test system: OVCAR-8
CCRF-CEM = test system: CCRF-CEM
SW-620 = test system: SW-620
UACC-257 = test system: UACC-257
DU-145 = test system: DU-145
UO-31 = test system: UO-31
HT-29 = test system: HT-29
ACHN = test system: ACHN
MDA-MB-231 = test system: MDA-MB-231

Measured: GI50

C/C(=N\NC(N)=S)c1ccc2c(c1)Sc1ccccc1O2
593 nM: HCT-15
active: MDA-N 373 nM | SR 485 nM | OVCAR-3 1020 nM | CAKI-1 1040 nM | COLO 205 1100 nM | MDA-MB-435 290 nM
inactive: Hs-578T 3780 nM | HCC 2998 1660 nM | MOLT-4 2540 nM | K562 2360 nM | HCT-116 2690 nM | NCI-H460 2830 nM | T47D 6610 nM | RPMI-8226 2160 nM | SF-268 2360 nM | SK-MEL-28 3810 nM | TK-10 3730 nM | SN12C 3340 nM | OVCAR-5 4010 nM | HOP-92 3170 nM | SF-295 4630 nM | NCI-H23 3700 nM | A498 2590 nM | M14 2400 nM | U-251 2370 nM | HOP-62 3460 nM | A549 2500 nM | UACC-62 2420 nM | NCI-H226 9230 nM | EKVX 1240 nM | Malme-3M 5530 nM | SK-OV-3 4110 nM | 786-0 3180 nM | SK-MEL-5 1580 nM | SNB-19 6550 nM | SNB-75 2530 nM | OVCAR-4 2470 nM | LOX IMVI 2620 nM | PC-3 2590 nM | SF-539 2260 nM | HL-60 3880 nM | SK-MEL-2 2110 nM | NCI/ADR-RES 2550 nM | KM12 4190 nM | OVCAR-8 2480 nM | CCRF-CEM 3670 nM | SW-620 2560 nM | UACC-257 6140 nM | DU-145 28100 nM | UO-31 2880 nM | HT-29 1610 nM | ACHN 4550 nM | MDA-MB-231 5050 nM

CC1C(=O)C(C)C(c2ccccc2)N(C)C1c1ccccc1 (centres undefined)
inactive: MOLT-4 34500 nM | SR 32300 nM | OVCAR-5 63800 nM | HL-60 39800 nM | HT-29 47600 nM
